Results taken from patent US20220370463A1, “STABILIZED C-FMS INTRACELLULAR FRAGMENTS (FICD) PROMOTE OSTEOCLAST DIFFERENTIATION AND ARTHRITIC BONE EROSION” (New York Society for the Relief of the Ruptured and …, priority 2019, published 2022).

Test system: K/BxN serum-induced arthritis
Assay: K/BxN serum transfer induced arthritis model
Assay type: in vivo, C57BL/6J mice
Procedure: (a and b) BMDMs from WT and FICDtg^M mice was stimulated with RANKL (50 ng/ml) at the indicated time. (a) RT-qPCR of Nfatc1 mRNA normalized relative to Hprt mRNA. (b) Immunoblot with anti NFATc1, HA, or α-tubulin antibodies. (c and d) BMDMs from Csf1r^f/+ Mx1-Cre mice were transduced by lentiviruses encoding FMS^wt, or FMS^mut and then cultured with M-CSF and RANKL. (c) Immunoblot of whole lysate with anti-NFATc1 antibody. α-tubulin was used as a control. […] The intensity of NFATc1 in FMS^mut was set as 100%. (d) Expression mRNA level of NFATc1. (e) Immunoblot of whole cell lysates with phospho-eIF4E antibodies. HA-tagged FICD was detected by HA-antibody. α-tubulin was used as a control. […] (f and g) Human CD14+ cells were treated with CGP57380 at the indicated doses for one hour and cultured with RANKL for one day. […] (g) Nfatc1 mRNA expression was measured by qPCR relative to HPRT. A DMSO-treated RANKL condition was set as 100%. (h) Osteoclastogenesis assay. BMDMs from WT and FICDtg^M mice were treated with CPG57380 at the indicated doses and then cultured with RANKL for three days. […] Scale bar: 100 μm. (i) Cell viability assay. BMDMs WT and FICDtg^M mice was stimulated with CPG57380 at the indicated doses for one day. (j-n) K/BxN serum transfer induced arthritis model. 9-week old male C57BL/6J mice were received K/BxN serum on day 0 and day 2. Vehicle or CPG57380 (40 mg/kg) was administrated intraperitoneally (i.p) at day 2 until day 13 (n=5-6). (j) Schematic diagram showing experimental design. (k) Ankle thickness. (1) Arthritis score. (m) Representative images of TRAP stained histological sections from calcaneocuboid and tarsometatarsal joints. (n) Histomorphometry analysis of tarsal bones. N.OC/B.Pm; Osteoclast number/bone parameter. OC.S/BS; osteoclast surface/bone surface. ES/BS; Eroded surface/bone surface (n=5-6). All data are shown as mean±SEM. *, p<0.05 by One-way ANOVA with a post hoc Tukey test (a, f-i,k,l) or two-tailed, unpaired t-test (d,e,n). Data represent at least three experiments.
FIGS. 11A-11E show calpain regulates FICD generation. (A-E) K/BxN serum transfer induced arthritis model. 8-week old male C57BL/6J mice were received K/BxN serum on day 0 and day 2. Vehicle or MDL28170 (10 mg/kg) was administrated intraperitoneally (i.p) at day 2 until day 11 (n=10). (A) K/BxN Experimental design. (B) Arthritis score. (C) Ankle thickness. (D) Representative images of TRAP stained histological sections from calcaneocuboid and tarsometatarsal joints. (E) Histomorphometry analysis of tarsal bones. N.OC/B.Pm; Osteoclast number/bone parameter. […]
Histomorphometry experiment was performed with tarsal bone of vehicle or MDL28170 treated mice. […] The quantification of osteoclast was performed in paraffin embedded tissues that were stained for TRAP and Methyl green (Vector Laboratories). […]

[1] = CGP57380 40 mg/kg i.p. day 2 until day 13
[2] = MDL28170 10 mg/kg i.p. day 2 until day 11

MDL28170
severity of arthritis: ankle joint thickness [1]: not affected
severity of arthritis: clinical score [1]: not affected
severity of arthritis: ankle joint thickness [2]: attenuated
severity of arthritis: clinical score [2]: attenuated
